# Source: US20070255062A1, “Benzoyl Amino Pyridyl Carboxylic Acid Derivatives Useful as Glucokinase (Glk) Activators” (priority 2003, published 2007)
# How the values were obtained:
# glucokinase (GLK) = biological target: T1, glucokinase (GLK) (Homo sapiens, UniProt P35557); assay: Enzymatic activity of GLK (G-6-P dehydrogenase, NADP/NADPH coupled assay), activation by compounds; assay type: biochemical; settings: read-out: EC50 (activating activity for glucokinase)
# T1 construct: 6-His (N); made in house; host or cells: E. coli BL21 (vector pTB375NBSE)
# T1 sequence (P35557 1-466 isoform P35557-2): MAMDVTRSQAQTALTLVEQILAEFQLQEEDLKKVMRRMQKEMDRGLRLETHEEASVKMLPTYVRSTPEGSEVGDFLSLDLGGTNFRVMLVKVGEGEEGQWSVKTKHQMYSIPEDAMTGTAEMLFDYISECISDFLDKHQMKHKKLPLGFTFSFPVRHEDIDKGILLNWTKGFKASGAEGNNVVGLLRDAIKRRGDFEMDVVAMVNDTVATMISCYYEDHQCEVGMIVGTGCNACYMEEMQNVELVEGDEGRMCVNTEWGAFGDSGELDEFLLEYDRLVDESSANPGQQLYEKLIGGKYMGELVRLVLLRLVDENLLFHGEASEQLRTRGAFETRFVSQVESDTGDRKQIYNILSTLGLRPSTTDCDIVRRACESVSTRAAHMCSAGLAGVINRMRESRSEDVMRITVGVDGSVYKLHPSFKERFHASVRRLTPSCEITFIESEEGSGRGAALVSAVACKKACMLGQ
# Procedure: (1) Enzymatic activity of GLK may be measured by incubating GLK, ATP and glucose. The rate of product formation may be determined by coupling the assay to a G-6-P dehydrogenase, NADP/NADPH system and measuring the linear increase in optical density at 340 nm (atschinsky et al 1993). Activation of GLK by compounds can be assessed using this assay in the presence or absence of GLKRP (GLK regulatory protein) as described in Brocklehurst et al (Diabetes 2004, 53, 535-541).
# GLK was expressed from the vector pTB375NBSE in E.coli BL21 cells, producing a recombinant protein containing a 6-His tag immediately adjacent to the N-terminal methionine. Alternatively, another suitable vector is pET21(+)DNA, Novagen, Cat number 697703. The 6-His tag was used to allow purification of the recombinant protein on a column packed with nickel-nitrilotriacetic acid agarose purchased from Qiagen (cat no 30250).
# [1] = Plasma protein binding by equilibrium dialysis; assay type: in vitro ADME; settings: rat, 18 hours at 37° C., plasma vs isotonic phosphate buffer pH 7.4, read-out: % free in plasma
# Procedure: Measurements of Plasma Protein Binding of Compounds
# The plasma protein binding of compounds was measured using the equilibrium dialysis technique (W. Lindner et al, J. Chromatography, 1996, 677, 1-28). Compound was dialysed at a concentration of 20 μM for 18 hours at 37° C. with plasma and isotonic phosphate buffer pH 7.4 (1 ml of each in the dialysis cell). A Spectrum® 20-cell equilibrium dialyser was used together with Teflon, semi-micro dialysis cells and Spectra/Por®2 membrane discs with a molecular weight cut off 12-14000 Dalton, 47 mm (supplied by PerBio Science UK Ltd, Tattenhall, Cheshire). Plasma and buffer samples are removed following dialysis and analysed using HPLCUV/MS (high performance liquid chromatography with UV and mass spec detection) to give the % free level in plasma.
# [2] = Plasma levels following oral administration to rats; assay type: in vivo; settings: rat, oral gavage, normalised dose of 1 mg of compound per kilogram of rat body weight
# Procedure: Measurement of Plasma Levels and Plasma Protein Binding Following Oral Administration to Rats
# Planetary Milled compounds [15 mins, 500 rpm, 5 Zirconium Balls, in a Puluerisette 7 Mill (Glen Creston Ltd, Stanmore, Middlesex, UK)] were suspended in 0.5% HPMC Tween and dosed to High Fat Fed (Research Diets, D12451, ad lib feeding 14 days) Female Alderley Park Zucker or Alderley Park Wistar rats at rate of 5 mls/kg, at doses between 0.3 and 10 mg/kg by oral gavage.
# Samples of plasma were obtained either by conscious blood sampling or terminal blood sampling as follows:
# Conscious blood sampling (for compound level or blood chemistry)—Intravenous blood samples were taken from tail vein using 600 μL Starstedt Multivette (EDTA) and 22 G needle at the required time point. […]
# The reconstituted samples were then analysed using high performance liquid chromatography with tandem mass spectrometry detection (HPLC-MS-MS)”. […]
# The concentration of test samples was determined from the ratio of the peak height of the test sample to the peak height of the internal standard. The concentration of the test sample was calculated with reference to a standard curve relating the ratio to the concentration prepared by using known concentrations of test sample added to samples of rat plasma using (3-isopropoxy-5-benzyoxy-benzoyl)amino pyridine 3-carboxylic acid as an internal standard, treated as described above.
# [3] = Estimation of plasma half-life; assay type: in vivo; settings: rat, typically determined following intravenous administration, semilogarithmic plot, read-out: t½ (half life in plasma) (converted)
# Text: Estimation of Plasma Half-Life
# The plasma half-life is the time taken for the concentration of compound in the plasma to decline to half of its original value. This is typically determined following intravenous administration of the test compound, followed by measurement of the compound concentrations in plasma samples as described above. The plasma half-life is estimated from a semilogarithmic plot, plotting the log of the plasma concentration (lnCp) against sample time (t, linear). The apparent first-order elimination rate constant, k, is equal to the slope of the line, and the elimination half-life (t1/2) is […] (Gibaldi, M and Perrier, D, 1975 Pharmacokinetics, Marcel Dekker, New York): [formula]
structure (smiles),measurement,setting,value
"COC[C@H](C)Oc1cc(Oc2cccc(C)c2)cc(C(=O)Nc2ccc(C(=O)O)cn2)c1 [Example 1, 6-[3-{(1S)-1-methyl-2-methoxy-ethoxy}-5-{3-methylphenoxy}phenylcarbonylamino]pyridine-3-carboxylic acid]",EC50,glucokinase (GLK),110 nM
same,"fraction unbound at 18 h, 20 μM",[1],0.0076
same,Peak Blood levels (including both bound and free),[2],2.06 µM
same,half-life,[3],6.4 h
